Assay results published in ChEMBL document CHEMBL5614409, “Discovery of potent HIV-1 NNRTIs by CuAAC click-chemistry-based miniaturized synthesis, rapid screening and structure optimization” (Eur J Med Chem, 2024).

Experiments:
[1] = tested on: Human immunodeficiency virus 1; experiment: Antiviral activity against HIV1 IIIB harboring K103 N mutant infected in MT4 cells assessed as reduction in virus induced cytopathic effect incubated for 5 days by MTT method; type: functional, organism-based; conditions: Human immunodeficiency virus 1, IIIB, MT4, 120 h
[2] = tested on: Human immunodeficiency virus 1; experiment: Antiviral activity against HIV1 IIIB harboring Y181C mutant infected in MT4 cells assessed as reduction in virus induced cytopathic effect incubated for 5 days by MTT method; type: functional, organism-based; conditions: Human immunodeficiency virus 1, IIIB, MT4, 120 h
[3] = tested on: Human immunodeficiency virus 1; experiment: Antiviral activity against HIV1 IIIB harboring F227L/V106A double mutant infected in MT4 cells assessed as reduction in virus induced cytopathic effect incubated for 5 days by MTT method; type: functional, organism-based; conditions: Human immunodeficiency virus 1, IIIB, MT4, 120 h
[4] = tested on: Human immunodeficiency virus 1; experiment: Antiviral activity against HIV1 IIIB harboring L100I mutant infected in MT4 cells assessed as reduction in virus induced cytopathic effect incubated for 5 days by MTT method; type: functional, organism-based; conditions: Human immunodeficiency virus 1, IIIB, MT4, 120 h
[5] = tested on: Human immunodeficiency virus 1; experiment: Antiviral activity against HIV1 IIIB harboring Y188L mutant infected in MT4 cells assessed as reduction in virus induced cytopathic effect incubated for 5 days by MTT method; type: functional, organism-based; conditions: Human immunodeficiency virus 1, IIIB, MT4, 120 h
[6] = Cytotoxicity against human MT4 cells assessed as reduction in cell viability incubated for 5 days by MTT method; type: toxicity, cell-based; conditions: time 5 day
[7] = tested on: Human immunodeficiency virus 1; experiment: Antiviral activity against HIV1 IIIB harboring E138K mutant infected in MT4 cells assessed as reduction in virus induced cytopathic effect incubated for 5 days by MTT method; type: functional, organism-based; conditions: Human immunodeficiency virus 1, IIIB, MT4, 120 h
[8] = tested on: Human immunodeficiency virus 1; experiment: Antiviral activity against HIV1 IIIB harboring RES056 mutant infected in MT4 cells assessed as reduction in virus induced cytopathic effect incubated for 5 days by MTT method; type: functional, organism-based; conditions: Human immunodeficiency virus 1, IIIB, MT4, 120 h
[9] = tested on: Human immunodeficiency virus 1; experiment: Antiviral activity against HIV1 IIIB infected in MT4 cells assessed as reduction in virus induced cytopathic effect incubated for 5 days by MTT method; type: functional, organism-based; conditions: Human immunodeficiency virus 1, IIIB, MT4, 120 h
[10] = Selectivity index, ratio of CC50 for human MT4 cells to EC50 for antiviral activity against HIV1 IIIB infected in MT4 cells; type: toxicity, cell-based; conditions: read-out: Ratio CC50/EC50

Structure (SMILES): CCNC(=O)Cn1cc(CN2CCC(Nc3nc4c(c(Oc5c(C)cc(/C=C/C#N)cc5C)n3)COC4)CC2)nn1
- EC50 [1]: 6 nM
- EC50 [2]: 20 nM
- EC50 [3]: 259 nM
- EC50 [4]: 13 nM
- EC50 [5]: 175 nM
- CC50 at 120 h [6]: 120000 nM
- EC50 [7]: 22 nM
- EC50 [8]: 512 nM
- EC50 [9]: 4 nM
- selectivity ratio [10]: 33200

Structure (SMILES): CCNC(=O)Cn1cc(CN2CCC(Nc3nc(Oc4c(C)cc(/C=C/C#N)cc4C)c4ccccc4n3)CC2)nn1
- EC50 [1]: 10 nM
- EC50 [2]: 33 nM
- EC50 [3]: 927 nM
- EC50 [4]: 18 nM
- EC50 [5]: 60 nM
- CC50 at 120 h [6]: 23700 nM
- EC50 [7]: 36 nM
- EC50 [8]: 241 nM
- EC50 [9]: 5 nM
- selectivity ratio [10]: 4230

Structure (SMILES): CNC(=O)Cn1cc(CN2CCC(Nc3nc(Oc4c(C)cc(/C=C/C#N)cc4C)c4sccc4n3)CC2)nn1
- EC50 [1]: 5 nM
- EC50 [2]: 16 nM
- EC50 [3]: 66 nM
- EC50 [4]: 6 nM
- EC50 [5]: 44 nM
- CC50 at 120 h [6]: 18400 nM
- EC50 [7]: 14 nM
- EC50 [8]: 99 nM
- EC50 [9]: 4 nM
- selectivity ratio [10]: 4720

Structure (SMILES): CCNC(=O)Cn1cc(CN2CCC(Nc3nc(Oc4c(C)cc(/C=C/C#N)cc4C)c4sccc4n3)CC2)nn1
- EC50 [1]: 6 nM
- EC50 [2]: 25 nM
- EC50 [3]: 168 nM
- EC50 [4]: 12 nM
- EC50 [5]: 80 nM
- CC50 at 120 h [6]: 17500 nM
- EC50 [7]: 33 nM
- EC50 [8]: 181 nM
- EC50 [9]: 5 nM
- selectivity ratio [10]: 3640

Structure (SMILES): Cc1cc(/C=C/C#N)cc(C)c1Oc1nc(NC2CCN(Cc3cn(CC(=O)NC4CC4)nn3)CC2)nc2ccccc12
- EC50 [1]: 9 nM
- EC50 [2]: 41 nM
- EC50 [3]: 546 nM
- EC50 [4]: 19 nM
- EC50 [5]: 58 nM
- CC50 at 120 h [6]: 22400 nM
- EC50 [7]: 29 nM
- EC50 [8]: 232 nM
- EC50 [9]: 5 nM
- selectivity ratio [10]: 4150

Structure (SMILES): Cc1cc(/C=C/C#N)cc(C)c1Oc1nc(NC2CCN(Cc3cn(CC(=O)NC4CCOCC4)nn3)CC2)nc2ccsc12
- EC50 [1]: 4 nM
- EC50 [2]: 19 nM
- EC50 [3]: 107 nM
- EC50 [4]: 9 nM
- EC50 [5]: 40 nM
- CC50 at 120 h [6]: 15600 nM
- EC50 [7]: 20 nM
- EC50 [8]: 101 nM
- EC50 [9]: 5 nM
- selectivity ratio [10]: 3060

Structure (SMILES): Cc1cc(/C=C/C#N)cc(C)c1Oc1ccnc(NC2CCN(Cc3cn(CC(N)=O)nn3)CC2)n1
- EC50 [1]: 3 nM
- EC50 [2]: 21 nM
- EC50 [3]: 188 nM
- EC50 [4]: 30 nM
- EC50 [5]: 729 nM
- CC50 at 120 h [6]: 47400 nM
- EC50 [7]: 24 nM
- EC50 [8]: 547 nM
- EC50 [9]: 2 nM
- selectivity ratio [10]: 21600

Structure (SMILES): CNC(=O)Cn1cc(CN2CCC(Nc3nccc(Oc4c(C)cc(/C=C/C#N)cc4C)n3)CC2)nn1
- EC50 [1]: 2 nM
- EC50 [2]: 11 nM
- EC50 [3]: 209 nM
- EC50 [4]: 10 nM
- EC50 [5]: 551 nM
- CC50 at 120 h [6]: 23500 nM
- EC50 [7]: 10 nM
- EC50 [8]: 262 nM
- EC50 [9]: 1 nM
- selectivity ratio [10]: 19600

Structure (SMILES): CNC(=O)Cn1cc(CN2CCC(Nc3nc(Oc4c(C)cc(/C=C/C#N)cc4C)c4ccccc4n3)CC2)nn1
- EC50 [2]: 18 nM
- EC50 [3]: 257 nM
- EC50 [4]: 8 nM
- EC50 [5]: 49 nM
- CC50 at 120 h [6]: 18100 nM
- EC50 [7]: 13 nM
- EC50 [8]: 139 nM
- EC50 [9]: 5 nM
- selectivity ratio [10]: 4020

Structure (SMILES): Cc1cc(/C=C/C#N)cc(C)c1Oc1nc(NC2CCN(Cc3cn(CC(N)=O)nn3)CC2)nc2ccsc12
- EC50 [1]: 8 nM
- EC50 [2]: 32 nM
- EC50 [3]: 94 nM
- EC50 [4]: 18 nM
- EC50 [5]: 97 nM
- CC50 at 120 h [6]: 16200 nM
- EC50 [7]: 21 nM
- EC50 [8]: 240 nM
- EC50 [9]: 5 nM
- selectivity ratio [10]: 3000

Structure (SMILES): CNC(=O)Cn1cc(CN2CCC(Nc3nc4c(c(Oc5c(C)cc(/C=C/C#N)cc5C)n3)COC4)CC2)nn1
- EC50 [1]: 8 nM
- EC50 [2]: 28 nM
- EC50 [3]: 945 nM
- EC50 [4]: 17 nM
- EC50 [5]: 179 nM
- CC50 at 120 h [6]: 119000 nM
- EC50 [7]: 17 nM
- EC50 [8]: 805 nM
- EC50 [9]: 4 nM
- selectivity ratio [10]: 31300

Structure (SMILES): Cc1cc(/C=C/C#N)cc(C)c1Oc1nc(NC2CCN(Cc3cn(CC(=O)NC4CCOCC4)nn3)CC2)nc2c1COC2
- EC50 [1]: 16 nM
- EC50 [2]: 38 nM
- EC50 [3]: 687 nM
- EC50 [4]: 21 nM
- EC50 [5]: 159 nM
- CC50 at 120 h [6]: 112000 nM
- EC50 [7]: 25 nM
- EC50 [8]: 385 nM
- EC50 [9]: 11 nM
- selectivity ratio [10]: 10400

Structure (SMILES): Cc1cc(/C=C/C#N)cc(C)c1Oc1nc(NC2CCN(Cc3cn(CC(N)=O)nn3)CC2)nc2c1COC2
- EC50 [1]: 32 nM
- EC50 [2]: 57 nM
- EC50 [3]: 268 nM
- EC50 [4]: 37 nM
- EC50 [5]: 419 nM
- CC50 at 120 h [6]: 125000 nM
- EC50 [7]: 31 nM
- EC50 [8]: 2460 nM
- EC50 [9]: 13 nM
- selectivity ratio [10]: 9570

Structure (SMILES): O=C1Nc2ccc(Cl)cc2[C@@](C#CC2CC2)(C(F)(F)F)O1 [EFAVIRENZ]
- CC50 at 120 h [6]: > 6350 nM

Structure (SMILES): Cc1cc(/C=C/C#N)cc(C)c1Oc1nc(NC2CCN(Cc3cn(CC(=O)NC4CC4)nn3)CC2)nc2ccsc12
- EC50 [2]: 23 nM
- EC50 [3]: 159 nM
- EC50 [4]: 17 nM
- EC50 [5]: 88 nM
- CC50 at 120 h [6]: 18200 nM
- EC50 [7]: 26 nM
- EC50 [8]: 191 nM
- EC50 [9]: 6 nM
- selectivity ratio [10]: 2940

Structure (SMILES): CCNC(=O)Cn1cc(CN2CCC(Nc3nccc(Oc4c(C)cc(/C=C/C#N)cc4C)n3)CC2)nn1
- EC50 [1]: 2 nM
- EC50 [2]: 7 nM
- EC50 [3]: 164 nM
- EC50 [4]: 7 nM
- EC50 [5]: 406 nM
- CC50 at 120 h [6]: 20700 nM
- EC50 [7]: 11 nM
- EC50 [8]: 215 nM
- EC50 [9]: 1 nM
- selectivity ratio [10]: 14800

Structure (SMILES): Cc1cc(/C=C/C#N)cc(C)c1Oc1nc(NC2CCN(Cc3cn(CC(=O)NC4CC4)nn3)CC2)nc2c1COC2
- EC50 [1]: 8 nM
- EC50 [2]: 33 nM
- EC50 [3]: 275 nM
- EC50 [4]: 16 nM
- EC50 [5]: 114 nM
- CC50 at 120 h [6]: 118000 nM
- EC50 [7]: 15 nM
- EC50 [8]: 304 nM
- EC50 [9]: 5 nM
- selectivity ratio [10]: 22800

Structure (SMILES): Cc1cc(/C=C/C#N)cc(C)c1Oc1ccnc(NC2CCN(Cc3cn(CC(=O)NC4CCOCC4)nn3)CC2)n1
- EC50 [1]: 5 nM
- EC50 [2]: 22 nM
- EC50 [3]: 232 nM
- EC50 [4]: 19 nM
- EC50 [5]: 522 nM
- CC50 at 120 h [6]: 19200 nM
- EC50 [7]: 34 nM
- EC50 [8]: 190 nM
- EC50 [9]: 4 nM
- selectivity ratio [10]: 4560

Structure (SMILES): Cc1cc(/C=C/C#N)cc(C)c1Oc1nc(NC2CCN(Cc3cn(CC(=O)NC4CCOCC4)nn3)CC2)nc2ccccc12
- EC50 [1]: 14 nM
- EC50 [2]: 31 nM
- EC50 [3]: 645 nM
- EC50 [4]: 15 nM
- EC50 [5]: 55 nM
- CC50 at 120 h [6]: 18400 nM
- EC50 [7]: 27 nM
- EC50 [8]: 161 nM
- EC50 [9]: 8 nM
- selectivity ratio [10]: 2300

Structure (SMILES): Cc1ccnc2c1NC(=O)c1cccnc1N2C1CC1 [NEVIRAPINE]
- CC50 at 120 h [6]: > 15000 nM
- EC50 [8]: > 15000 nM
- EC50 [9]: 151 nM
